# Source: PubChem BioAssay (NCI)
#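 Method: 48-hour compound exposure of cells in 96-well plates, five concentrations, linear interpolation of endpoints. Here, GI50 denotes the concentration required for 50% inhibition of growth. TGI marks complete inhibition of growth.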
# Key:
# Assay in all cases: DTP human tumour cell line panel, 48 h
# SF-295 CNS = system: SF-295 CNS
# PC-3 prostate = system: PC-3 prostate
# A549 NSCLC = system: A549 NSCLC
# SK-MEL-28 melanoma = system: SK-MEL-28 melanoma
# OVCAR-5 ovarian = system: OVCAR-5 ovarian
# SK-OV-3 ovarian = system: SK-OV-3 ovarian
# OVCAR-3 ovarian = system: OVCAR-3 ovarian
# COLO 205 colon = system: COLO 205 colon
# HS 578T breast = system: HS 578T breast
# EKVX NSCLC = system: EKVX NSCLC
# SN12C renal = system: SN12C renal
# SK-MEL-5 melanoma = system: SK-MEL-5 melanoma
# RPMI-8226 leukemia = system: RPMI-8226 leukemia
# SR leukemia = system: SR leukemia
# HCC-2998 colon = system: HCC-2998 colon
# KM12 colon = system: KM12 colon
# SNB-19 CNS = system: SNB-19 CNS
# IGROV1 ovarian = system: IGROV1 ovarian
# TK-10 renal = system: TK-10 renal
# OVCAR-8 ovarian = system: OVCAR-8 ovarian
# NCI-H226 lung = system: NCI-H226 lung
# DU-145 prostate = system: DU-145 prostate
# UACC-257 melanoma = system: UACC-257 melanoma
# SF-539 CNS = system: SF-539 CNS
# MALME-3M melanoma = system: MALME-3M melanoma
# UACC-62 melanoma = system: UACC-62 melanoma
# HCT-116 colon = system: HCT-116 colon
# MCF7 breast = system: MCF7 breast
# SK-MEL-2 melanoma = system: SK-MEL-2 melanoma
# NCI-H460 lung = system: NCI-H460 lung
# RXF 393 renal = system: RXF 393 renal
# UO-31 renal = system: UO-31 renal
# SW-620 colon = system: SW-620 colon
# HT29 colon = system: HT29 colon
# ACHN renal = system: ACHN renal
# 786-0 renal = system: 786-0 renal
# CCRF-CEM leukemia = system: CCRF-CEM leukemia
# T-47D breast = system: T-47D breast
# MOLT-4 leukemia = system: MOLT-4 leukemia
# OVCAR-4 ovarian = system: OVCAR-4 ovarian
# CAKI-1 renal = system: CAKI-1 renal
# A498 renal = system: A498 renal
# HCT-15 colon = system: HCT-15 colon
# HOP-62 NSCLC = system: HOP-62 NSCLC
# U251 CNS = system: U251 CNS
# SF-268 CNS = system: SF-268 CNS
# LOX IMVI melanoma = system: LOX IMVI melanoma
# MDA-MB-231 breast = system: MDA-MB-231 breast
# HOP-92 NSCLC = system: HOP-92 NSCLC
# M14 melanoma = system: M14 melanoma
# NCI/ADR-RES ovarian = system: NCI/ADR-RES ovarian
# BT-549 breast = system: BT-549 breast
# SNB-75 CNS = system: SNB-75 CNS
# K-562 leukemia = system: K-562 leukemia
# HL-60(TB) leukemia = system: HL-60(TB) leukemia
# NCI-H522 lung = system: NCI-H522 lung
smiles,measurement,setting,value
CCOC(=O)Nc1cccc(-n2cnc3cc(-c4ccc(O)cc4)ccc32)c1,GI50,SF-295 CNS,102 nM
same,TGI,SF-295 CNS,> 100000 nM
same,GI50,PC-3 prostate,145 nM
same,TGI,PC-3 prostate,> 100000 nM
same,GI50,A549 NSCLC,380 nM
same,TGI,A549 NSCLC,> 45600 nM
same,GI50,SK-MEL-28 melanoma,1620 nM
same,TGI,SK-MEL-28 melanoma,> 45900 nM
same,GI50,OVCAR-5 ovarian,600 nM
same,TGI,OVCAR-5 ovarian,> 75100 nM
same,GI50,SK-OV-3 ovarian,618 nM
same,TGI,SK-OV-3 ovarian,> 72000 nM
same,GI50,OVCAR-3 ovarian,56.2 nM
same,TGI,OVCAR-3 ovarian,2170 nM
same,GI50,COLO 205 colon,232 nM
same,TGI,COLO 205 colon,> 34600 nM
same,GI50,HS 578T breast,317 nM
same,TGI,HS 578T breast,> 30700 nM
same,GI50,EKVX NSCLC,885 nM
same,TGI,EKVX NSCLC,> 47800 nM
same,GI50,SN12C renal,498 nM
same,TGI,SN12C renal,> 55000 nM
same,GI50,SK-MEL-5 melanoma,167 nM
same,TGI,SK-MEL-5 melanoma,2370 nM
same,GI50,RPMI-8226 leukemia,342 nM
same,TGI,RPMI-8226 leukemia,3780 nM
same,GI50,SR leukemia,32 nM
same,TGI,SR leukemia,> 45200 nM
same,GI50,HCC-2998 colon,310 nM
same,TGI,HCC-2998 colon,> 66700 nM
same,GI50,KM12 colon,283 nM
same,TGI,KM12 colon,6020 nM
same,GI50,SNB-19 CNS,313 nM
same,TGI,SNB-19 CNS,> 100000 nM
same,GI50,IGROV1 ovarian,561 nM
same,TGI,IGROV1 ovarian,> 46500 nM
same,GI50,TK-10 renal,1470 nM
same,TGI,TK-10 renal,> 64800 nM
same,GI50,OVCAR-8 ovarian,302 nM
same,TGI,OVCAR-8 ovarian,> 33700 nM
same,GI50,NCI-H226 lung,1260 nM
same,TGI,NCI-H226 lung,6770 nM
same,GI50,DU-145 prostate,391 nM
same,TGI,DU-145 prostate,> 45300 nM
same,GI50,UACC-257 melanoma,1270 nM
same,TGI,UACC-257 melanoma,> 42500 nM
same,GI50,SF-539 CNS,182 nM
same,TGI,SF-539 CNS,15000 nM
same,GI50,MALME-3M melanoma,774 nM
same,TGI,MALME-3M melanoma,> 48800 nM
same,GI50,UACC-62 melanoma,367 nM
same,TGI,UACC-62 melanoma,> 36900 nM
same,GI50,HCT-116 colon,141 nM
same,TGI,HCT-116 colon,> 46200 nM
same,GI50,MCF7 breast,141 nM
same,TGI,MCF7 breast,> 35700 nM
same,GI50,SK-MEL-2 melanoma,204 nM
same,TGI,SK-MEL-2 melanoma,> 43800 nM
same,GI50,NCI-H460 lung,192 nM
same,TGI,NCI-H460 lung,> 34200 nM
same,GI50,RXF 393 renal,157 nM
same,TGI,RXF 393 renal,681 nM
same,GI50,UO-31 renal,388 nM
same,TGI,UO-31 renal,> 36900 nM
same,GI50,SW-620 colon,64.7 nM
same,TGI,SW-620 colon,> 47400 nM
same,GI50,HT29 colon,143 nM
same,TGI,HT29 colon,1100 nM
same,GI50,ACHN renal,260 nM
same,TGI,ACHN renal,> 67400 nM
same,GI50,786-0 renal,719 nM
same,TGI,786-0 renal,> 54800 nM
same,GI50,CCRF-CEM leukemia,144 nM
same,TGI,CCRF-CEM leukemia,> 100000 nM
same,GI50,T-47D breast,940 nM
same,TGI,T-47D breast,> 29300 nM
same,GI50,MOLT-4 leukemia,114 nM
same,TGI,MOLT-4 leukemia,37200 nM
same,GI50,OVCAR-4 ovarian,1580 nM
same,TGI,OVCAR-4 ovarian,> 55800 nM
same,GI50,CAKI-1 renal,343 nM
same,TGI,CAKI-1 renal,> 76800 nM
same,GI50,A498 renal,697 nM
same,TGI,A498 renal,4530 nM
same,GI50,HCT-15 colon,44.7 nM
same,TGI,HCT-15 colon,> 37800 nM
same,GI50,HOP-62 NSCLC,770 nM
same,TGI,HOP-62 NSCLC,> 59800 nM
same,GI50,U251 CNS,158 nM
same,TGI,U251 CNS,> 47100 nM
same,GI50,SF-268 CNS,2190 nM
same,TGI,SF-268 CNS,> 71600 nM
same,GI50,LOX IMVI melanoma,245 nM
same,TGI,LOX IMVI melanoma,> 39900 nM
same,GI50,MDA-MB-231 breast,267 nM
same,TGI,MDA-MB-231 breast,> 67400 nM
same,GI50,HOP-92 NSCLC,1450 nM
same,TGI,HOP-92 NSCLC,13600 nM
same,GI50,M14 melanoma,63.4 nM
same,TGI,M14 melanoma,> 37800 nM
same,GI50,NCI/ADR-RES ovarian,84.9 nM
same,TGI,NCI/ADR-RES ovarian,25400 nM
same,GI50,BT-549 breast,132 nM
same,TGI,BT-549 breast,4400 nM
same,GI50,SNB-75 CNS,48.6 nM
same,TGI,SNB-75 CNS,> 41100 nM
same,GI50,K-562 leukemia,42.6 nM
same,TGI,K-562 leukemia,> 100000 nM
same,GI50,HL-60(TB) leukemia,36 nM
same,TGI,HL-60(TB) leukemia,1210 nM
same,GI50,NCI-H522 lung,56.1 nM
same,TGI,NCI-H522 lung,333 nM
COc1ccc(-c2nc(C(Cl)Cl)nc3cc(-c4ccccc4)nn23)cc1,GI50,SK-MEL-5 melanoma,> 100000 nM
same,TGI,SK-MEL-5 melanoma,> 100000 nM
same,GI50,SR leukemia,1870 nM
same,TGI,SR leukemia,> 100000 nM
same,GI50,SNB-19 CNS,2810 nM
same,TGI,SNB-19 CNS,> 100000 nM
same,GI50,SF-539 CNS,72800 nM
same,TGI,SF-539 CNS,> 100000 nM
same,GI50,UACC-62 melanoma,> 100000 nM
same,TGI,UACC-62 melanoma,> 100000 nM
same,GI50,SK-MEL-2 melanoma,> 100000 nM
same,TGI,SK-MEL-2 melanoma,> 100000 nM
same,GI50,RXF 393 renal,1630 nM
same,TGI,RXF 393 renal,3140 nM
same,GI50,UO-31 renal,> 100000 nM
same,TGI,UO-31 renal,> 100000 nM
same,GI50,SW-620 colon,1960 nM
same,TGI,SW-620 colon,> 100000 nM
same,GI50,786-0 renal,10700 nM
same,TGI,786-0 renal,26900 nM
same,GI50,MOLT-4 leukemia,2750 nM
same,TGI,MOLT-4 leukemia,> 100000 nM
same,GI50,HOP-62 NSCLC,2660 nM
same,TGI,HOP-62 NSCLC,> 100000 nM
same,GI50,HOP-92 NSCLC,3090 nM
same,TGI,HOP-92 NSCLC,> 100000 nM
same,GI50,BT-549 breast,1920 nM
same,TGI,BT-549 breast,5780 nM
same,GI50,SNB-75 CNS,> 100000 nM
same,TGI,SNB-75 CNS,> 100000 nM
same,GI50,K-562 leukemia,3060 nM
same,TGI,K-562 leukemia,> 100000 nM
same,GI50,HL-60(TB) leukemia,1600 nM
same,TGI,HL-60(TB) leukemia,> 100000 nM
